Measurements as given in article PMC4012458, “Action of Clathrodin and Analogues on Voltage-Gated Sodium Channels” (Marine Drugs, 2014).

Tests used:
NaV1.5 = molecular target: T1, NaV1.5 (Homo sapiens, UniProt Q14524); test: two-electrode voltage clamp in Xenopus oocytes, […] inhibition at […]; assay type: cell-based
T1 construct: gene SCN5A

NaV1.4 = molecular target: T2, NaV1.4 (Rattus norvegicus, UniProt P15390); test: two-electrode voltage clamp in Xenopus oocytes, concentration-response; also QPatch patch clamp; assay type: cell-based
T2 construct: gene Scn4a
T2 sequence (P15390 whole entry): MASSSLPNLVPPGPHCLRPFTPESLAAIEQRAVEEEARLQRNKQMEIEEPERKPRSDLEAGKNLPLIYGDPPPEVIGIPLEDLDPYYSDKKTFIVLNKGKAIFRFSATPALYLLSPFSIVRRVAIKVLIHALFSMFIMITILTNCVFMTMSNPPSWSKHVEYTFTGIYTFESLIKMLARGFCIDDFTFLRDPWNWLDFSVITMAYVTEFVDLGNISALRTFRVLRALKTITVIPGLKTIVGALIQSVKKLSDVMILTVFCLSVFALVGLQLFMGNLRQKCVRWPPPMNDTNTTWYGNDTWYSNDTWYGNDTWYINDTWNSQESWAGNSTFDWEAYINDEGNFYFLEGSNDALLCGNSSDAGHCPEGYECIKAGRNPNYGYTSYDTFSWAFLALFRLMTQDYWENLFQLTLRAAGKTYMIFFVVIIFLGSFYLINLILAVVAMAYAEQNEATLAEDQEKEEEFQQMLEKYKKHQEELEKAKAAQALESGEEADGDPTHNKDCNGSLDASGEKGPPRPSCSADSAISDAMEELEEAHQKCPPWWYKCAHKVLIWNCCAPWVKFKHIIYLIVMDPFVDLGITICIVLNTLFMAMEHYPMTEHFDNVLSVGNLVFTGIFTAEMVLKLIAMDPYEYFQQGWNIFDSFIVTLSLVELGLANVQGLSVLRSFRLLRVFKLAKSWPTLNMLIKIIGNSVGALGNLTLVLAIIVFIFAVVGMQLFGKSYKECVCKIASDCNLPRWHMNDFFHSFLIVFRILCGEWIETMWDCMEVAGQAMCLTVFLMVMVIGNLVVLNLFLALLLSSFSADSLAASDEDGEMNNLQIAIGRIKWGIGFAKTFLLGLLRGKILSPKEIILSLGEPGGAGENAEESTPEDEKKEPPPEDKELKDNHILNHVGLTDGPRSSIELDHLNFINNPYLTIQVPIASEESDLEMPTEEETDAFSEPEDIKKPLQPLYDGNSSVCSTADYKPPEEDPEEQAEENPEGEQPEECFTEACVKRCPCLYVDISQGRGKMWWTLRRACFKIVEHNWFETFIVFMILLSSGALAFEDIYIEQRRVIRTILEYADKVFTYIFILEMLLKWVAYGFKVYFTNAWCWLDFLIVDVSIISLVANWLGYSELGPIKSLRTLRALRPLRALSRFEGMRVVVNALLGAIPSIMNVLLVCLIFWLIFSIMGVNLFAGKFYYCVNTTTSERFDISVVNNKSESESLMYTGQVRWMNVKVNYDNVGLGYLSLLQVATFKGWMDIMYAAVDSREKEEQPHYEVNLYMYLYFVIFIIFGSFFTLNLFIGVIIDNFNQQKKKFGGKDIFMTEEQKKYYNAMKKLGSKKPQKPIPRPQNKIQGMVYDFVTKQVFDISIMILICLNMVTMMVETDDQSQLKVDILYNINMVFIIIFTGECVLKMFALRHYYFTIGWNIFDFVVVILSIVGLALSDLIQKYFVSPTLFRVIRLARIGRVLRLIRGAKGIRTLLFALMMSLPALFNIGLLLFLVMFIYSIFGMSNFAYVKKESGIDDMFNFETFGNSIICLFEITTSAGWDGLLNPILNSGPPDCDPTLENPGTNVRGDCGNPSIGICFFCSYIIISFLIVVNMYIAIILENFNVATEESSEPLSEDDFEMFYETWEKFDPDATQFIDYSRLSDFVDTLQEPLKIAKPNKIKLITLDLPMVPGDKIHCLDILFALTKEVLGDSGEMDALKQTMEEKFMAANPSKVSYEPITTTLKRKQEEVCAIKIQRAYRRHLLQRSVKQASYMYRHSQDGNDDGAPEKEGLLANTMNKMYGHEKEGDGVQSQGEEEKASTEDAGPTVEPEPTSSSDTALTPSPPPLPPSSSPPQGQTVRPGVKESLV

T1 sequence (Q14524 whole entry): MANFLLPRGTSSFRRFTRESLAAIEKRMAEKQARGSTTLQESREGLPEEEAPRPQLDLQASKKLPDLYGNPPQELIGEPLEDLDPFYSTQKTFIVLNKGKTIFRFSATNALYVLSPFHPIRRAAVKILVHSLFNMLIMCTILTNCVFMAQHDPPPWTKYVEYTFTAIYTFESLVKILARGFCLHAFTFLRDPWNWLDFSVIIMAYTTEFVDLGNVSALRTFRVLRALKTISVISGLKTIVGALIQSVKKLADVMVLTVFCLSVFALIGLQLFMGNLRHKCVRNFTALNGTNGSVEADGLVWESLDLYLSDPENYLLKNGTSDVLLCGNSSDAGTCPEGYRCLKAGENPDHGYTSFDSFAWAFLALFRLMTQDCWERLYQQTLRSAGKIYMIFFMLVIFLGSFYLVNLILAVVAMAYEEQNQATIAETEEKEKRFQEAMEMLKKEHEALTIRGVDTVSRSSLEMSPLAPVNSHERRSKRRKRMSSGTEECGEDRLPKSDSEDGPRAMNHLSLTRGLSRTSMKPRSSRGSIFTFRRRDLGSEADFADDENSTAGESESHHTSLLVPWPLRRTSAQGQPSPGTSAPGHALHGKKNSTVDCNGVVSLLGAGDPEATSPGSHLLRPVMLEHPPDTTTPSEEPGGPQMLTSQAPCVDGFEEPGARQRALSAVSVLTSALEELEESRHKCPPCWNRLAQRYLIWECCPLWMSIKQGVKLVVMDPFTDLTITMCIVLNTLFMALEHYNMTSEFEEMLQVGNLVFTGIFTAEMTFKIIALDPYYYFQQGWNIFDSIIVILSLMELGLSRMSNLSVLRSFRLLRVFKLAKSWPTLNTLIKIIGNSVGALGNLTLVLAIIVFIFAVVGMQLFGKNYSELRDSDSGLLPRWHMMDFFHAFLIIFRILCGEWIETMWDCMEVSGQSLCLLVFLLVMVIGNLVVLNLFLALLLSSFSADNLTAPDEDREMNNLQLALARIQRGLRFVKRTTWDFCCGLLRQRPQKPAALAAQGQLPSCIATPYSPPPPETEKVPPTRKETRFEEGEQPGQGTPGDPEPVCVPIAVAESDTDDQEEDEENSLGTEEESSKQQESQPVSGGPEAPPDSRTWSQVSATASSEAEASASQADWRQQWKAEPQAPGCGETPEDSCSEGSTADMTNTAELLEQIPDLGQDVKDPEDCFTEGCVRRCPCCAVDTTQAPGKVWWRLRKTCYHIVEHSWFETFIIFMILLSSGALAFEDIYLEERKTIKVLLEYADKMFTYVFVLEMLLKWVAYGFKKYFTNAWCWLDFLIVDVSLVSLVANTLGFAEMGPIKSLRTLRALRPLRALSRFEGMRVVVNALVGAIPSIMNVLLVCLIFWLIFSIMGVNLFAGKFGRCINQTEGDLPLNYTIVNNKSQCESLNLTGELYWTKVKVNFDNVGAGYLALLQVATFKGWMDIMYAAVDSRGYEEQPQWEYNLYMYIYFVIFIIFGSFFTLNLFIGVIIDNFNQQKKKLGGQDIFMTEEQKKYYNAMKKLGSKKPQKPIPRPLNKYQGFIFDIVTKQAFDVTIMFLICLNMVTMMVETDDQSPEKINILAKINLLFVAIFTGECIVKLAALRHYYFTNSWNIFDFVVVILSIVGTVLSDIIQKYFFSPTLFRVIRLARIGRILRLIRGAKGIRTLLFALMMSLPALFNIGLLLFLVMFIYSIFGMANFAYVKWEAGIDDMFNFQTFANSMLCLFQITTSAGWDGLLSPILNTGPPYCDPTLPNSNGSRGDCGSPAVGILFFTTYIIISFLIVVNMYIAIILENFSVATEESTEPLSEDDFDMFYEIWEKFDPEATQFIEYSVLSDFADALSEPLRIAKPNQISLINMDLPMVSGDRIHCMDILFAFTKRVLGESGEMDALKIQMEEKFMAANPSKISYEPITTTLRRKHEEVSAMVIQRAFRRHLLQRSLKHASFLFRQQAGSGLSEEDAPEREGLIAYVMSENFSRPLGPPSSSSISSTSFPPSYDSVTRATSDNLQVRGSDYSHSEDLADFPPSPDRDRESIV

Nc1nc(-c2cccc(NC(=O)c3c[nH]c4ccccc34)c2)c[nH]1 [compound 9, Compound 9]
inhibition at 1 µM (NaV1.5): 19.6 ± 1.3% | IC50 (NaV1.4): 3.5 ± 0.9 µM
